The values below come from patent US20030144213A1, “Combination therapy of angiotensin converting enzyme inhibitor, side-effect reduced amount of aldosterone antagonist and diuretic for treatment of cardiovascular disease” (G.D. Searle & Co., priority 1996, published 2003).

Data set [1] concerns hypertensive patients. The note with it: cited from earlier work.
The subject of data set [2] is patients with symptomatic heart failure. In words: Spironolactone dose-ranging clinical trial (12 weeks, added to ACE inhibitor, loop diuretic, optional digitalis).
The test system of data set [3] is myocardial fibrosis in animal models. The following applies: cited from earlier work.
For data set [4], the system named is hypertensive-rat cohort. The following applies: sub-cutaneously; hypertensive rats; cited from earlier work.
Data set [5] relates to patients afflicted with congestive heart failure. The following applies: coadministered with an ACE inhibitor; cited from earlier work.

The structures appear in SMILES notation.

Consider `C[C@H](CS)C(=O)N1CCC[C@H]1C(=O)O` [Captopril, captopril], for which the “Plasma aldosterone despite continued ACE inhibition” value in data set [1] was “gradual return of plasma aldosterone to baseline levels”. Moreover, the “Likelihood of hyperkalemia on captopril vs another ACE-I” value in data set [2] (background ACE-I) is “about one-third as likely to develop hyperkalemia”.

As to `CC(=O)S[C@@H]1CC2=CC(=O)CC[C@]2(C)[C@H]2CC[C@@]3(C)[C@@H](CC[C@@]34CCC(=O)O4)[C@H]12` [Spironolactone, 17-hydroxy-7α-mercapto-3-oxo-17α-pregn-4-ene-21-carboxylic acid γ-lactone acetate], in data set [3], the Myocardial fibrosis result was “prevents myocardial fibrosis in animal models”. Further, the Fibrosis result in data set [4] was “prevent fibrosis in the hypertensive-rat cohort”. The “Patients in whom highly effective” value in data set [5] is 13 of 16. Moreover, the “Mean systolic and diastolic blood pressure (standing and supine)” value in data set [2] (25 mg, 50 mg and 75 mg groups, all visits) was “decreases in mean systolic and diastolic blood pressure”. Also, the “Change from baseline in body weight” value in data set [2] (75 mg dose group, Day 9 and Week 4) was “more weight loss than other patients”. The “Change from baseline in PRA, dose-response” value in data set [2] (Day 9, Week 4 and Week 12 (P≦0.001)) is reported as “higher doses of spironolactone associated with greater increases in PRA”. In data set [2] (Day 9 and Week 4 (p≦0.048), not at later visits), the “Change from baseline in serum magnesium” value is “statistically significant dose-response”. For the same compound, the “Change from baseline in supine pulse, dose response” value in data set [2] (Week 4 (p-value=0.045)) is “greater decreases in pulse in the supine position at higher doses”. Moreover, the “Hematocrit and hemoglobin vs placebo” value in data set [2] (Week 12 (p=0.002; 0.005)) is “lower levels for the active treatment groups”. Further, the “Urinary aldosterone excretion, dose response” value in data set [2] (Week 12 vs baseline (p=0.002)) was “Greater increases were seen at higher doses of spironolactone”. For the same compound, in data set [2] (all active treatments, Day 9, Week 4, Week 12), the “N-Terminal Atrial Natriuretic Factor (ANF) change” value was “decreases from baseline at all treatment visits”. Besides, the “Deaths during the drug treatment period” value in data set [2] (all doses, 12 weeks) was “No deaths”. In data set [2] (all treatment period visits (p<0.001)), the “Change from baseline in serum potassium, dose-response” value is “Higher doses of spironolactone were associated with larger increases in potassium”. The “Hyperkalemia adverse event, dose-response of incidence” value in data set [2] (p=0.001) was “clear dose-response in term of incidence”. Further, the “Patients who died within 30 days after the study was completed” value in data set [2] (previously at the 50 mg dose) is reported as “Three”. The “NYHA Class improvement” value in data set [2] (vs placebo, not statistically significant) was “trend toward improvement”.
